Measured values published in patent publication US10426773B2, “Systems pharmacology for treating ocular disorders” (Case Western Reserve Univeristy, priority 2011, dated 2019).
“Also recorded” adds a separate entry of the source. Structures can show the parent of a compound that is named as a salt.

Key:
[1] = system: ROS generation in photoreceptors of Abca4−/−Rdh8−/− mice; test: In vivo detection of ROS (DHE probe) in retinas of light-exposed Abca4−/−Rdh8−/− mice; set-up: species or system mouse; conditions: Example 1; pretreatment before light 10,000 lux 30 min; retinas 3 h after illumination
Protocol: The ROS probe, DHE, at a dose of 20 mg/kg body weight was administered to Abca4^−/−Rdh8^−/− mice via intraperitoneal injection 30 min prior to light exposure. Eye cups obtained after removing the cornea, lens and vitreous body from enucleated eye globes 3 h post light illumination were fixed in 4% paraformaldehyde. Cryosections were prepared from fixed eye cups and cut at 12 am thickness for microscopic assessment of ROS signal fluorescence in the retina.
The ROS probe, DHE, at a dose of 20 mg/kg body weight in 25 μl of DMSO, was administered to Abca4^−/−Rdh8^−/− mice via intraperitoneal injection 1 h prior to light exposure. Eye cups obtained after removing the cornea, lens, and vitreous body from enucleated eye globes 3 h post light illumination were fixed in 4% paraformaldehyde. Cryosections were prepared from fixed eye cups and cut at 12-am thickness for microscopic assessment of ROS fluorescence in the retina with ImageJ software (National Institutes of Health).

[2] = system: Abca4−/−Rdh8−/− mice; test: Bright light-induced retinal degeneration in Abca4−/−Rdh8−/− mice, ERG retinal function; conditions: pretreatment before light 10,000 lux 30 min, ERG 7 days to 2 weeks after
[3] = system: Abca4−/−Rdh8−/− mice; test: Bright light-induced retinal degeneration in Abca4−/−Rdh8−/− mice, retinal histology and immunohistochemistry; assay type: in vivo, mouse; conditions: pretreatment before light 10,000 lux 30 min; 7-10 days after light exposure
Protocol: Retinal histology and immunohistochemistry (IHC) was performed as previously described. Briefly, eye cups free of cornea, lens and vitreous body were fixed in 2% glutaraldehyde/4% paraformaldehyde and processed for Epon embedding. Sections 1 am thick were cut and stained with toluidine blue for histological examination under a light microscope. IHC analysis was performed on 12 am thick cryosections prepared from 4% paraformaldehyde-fixed eye cups. Collected cryosections were subjected to examination for rhodopsin, PNA and DAPI expression.
Retinal immunohistochemistry (IHC) was carried out as previously described. Briefly, eyes were enucleated and eye cups were made to eliminate cornea, lens and vitreous body and fixed in 4% paraformaldehyde and processed for cryosectioning. 12 am thick cryosections were collected cryosections and subjected to examination for rhodopsin, peanut agglutinin lectin (PNA) and DAPI expression.
Retinal immunohistochemistry (IHC) was performed as previously described. Briefly, eyes were enucleated and, after removal of the cornea, lens and vitreous body, eye cups were fixed in 4% paraformaldehyde and processed for cryosectioning. Twelve μm thick cryosections were cut, collected and examined for rhodopsin expression, peanut agglutinin lectin (PNA) for cone sheath and nuclear DAPI staining. […]

[4] = system: Abca4−/−Rdh8−/− mice; test: Bright light-induced retinal degeneration in Abca4−/−Rdh8−/− mice, OCT imaging of retinal structure; assay type: in vivo, mouse; conditions: for retinal / photoreceptor morphology by OCT imaging: pretreatment before light 10,000 lux 30 min, OCT 7 days after light exposure; for Percent of mice with: subeffective doses BRM 0.1, MTP 1, TAM 0.05, DOX 1 mg/kg bw, OCT 7 days; for Effect (effectiveness at preventing light-induced photoreceptor degeneration as measured by OCT imaging): ip, dose of each compound in column Dose of Table 1
[5] = system: retinal transcriptome of Abca4−/−Rdh8−/− mice; test: RNA-seq retinal transcriptome of pretreated, light-exposed Abca4−/−Rdh8−/− mice (differential expression, Pearson, GSEA); assay type: in vivo, mouse
[6] = system: Abca4−/−Rdh8−/− mice; test: Bright light-induced retinal degeneration in Abca4−/−Rdh8−/− mice, SLO autofluorescence imaging; assay type: in vivo, mouse; conditions: pretreatment before light 10,000 lux 30 min; SLO 8-9 days after light exposure
Protocol: SLO (Heidelberg Engineering, Heidelberg, Germany) was carried out for whole fundus imaging of mouse retinas. Mice were anesthetized by intraperitoneal injection of anesthetic cocktail indicated above, which was followed by pupil dilation using 1% tropicamide prior to SLO imaging under autofluorescence mode.
SLO (Heidelberg Engineering) was carried out for in vivo whole fundus imaging of mouse retinas. […] Numbers of autofluorescent spots were counted and subjected to statistical analyses as described below.
SLO (Heidelberg Engineering) was carried out for whole fundus imaging of mouse retinas in vivo. Mice were anesthetized, and their pupils were dilated as described above. SLO images were then acquired in the autofluorescence mode.

[7] = system: ARPE19 cells; test: In vitro detection and quantification of intracellular ROS in ARPE19 cells (DCF-DA / DHE probes); assay type: cell-based, human; conditions: retinoid applied to cultured ARPE19 cells, ROS probe DCF-DA or DHE
Protocol: ARPE19 cells were cultured in Dulbecco's Modified Eagle's Medium (DMEM) (low glucose) supplemented with 10% fetal bovine serum. The ROS probes, 2′,7′-dichlorofluorescein diacetate (DCF-DA, Sigma, St. Louis, Mo.) or dihydroethidium (DHE, Invitrogen Corporation, Carlsbad, Calif.) were added after indicated pretreatments and incubated at 37° C. for 10-min before thorough washing in PBS and the ROS signals were subsequently observed at the same exposure setting under an inverted fluorescence microscope (Leica DMI 6000 B). Fluorescence quantification was performed with Metamorph imaging software (Molecular Devices, Downington, Pa.). Thresholds corresponding to fluorescent signals were set from the images and average fluorescence intensities were recorded for statistical analysis.

[8] = GSEA, vehicle-treated light-exposed retinas against drug-treated

Compound	retinal histology / immunohistochemistry (rhodopsin, PNA, DAPI; ONL) [3]	retinal / photoreceptor morphology by OCT imaging [4]	retinal autofluorescence spots by SLO imaging [6]	also measured
CC(C)C[C@H](CN)CC(=O)O (single isomer, unassigned) [R and S enantiomer of pregabalin, pregabalin]				ROS production in the ONL / photoreceptors (DHE signal) [1]: also consistently observed
C[N+]1(C)CCC(OC(=O)C(c2ccccc2)c2ccccc2)CC1.[I-] [4-DAMP, 1,1-dimethyl-4-diphenylacetoxypiperidinium iodide]	preserve retinal morphology			retinal function by ERG (a-wave and b-wave amplitudes) [2]: protective effect
CCCN(CCC)C1CCc2cccc(O)c2C1 (centres unmarked) [8-OH-DPAT, 8-hydroxy-N,N-dipropyl-2-aminotetralin]		protective effect; also recorded: dose-dependent		
CC(C)C[C@H]1C(=O)N2CCC[C@H]2[C@]2(O)O[C@](NC(=O)[C@@H]3C=C4c5cccc6[nH]c(Br)c(c56)C[C@H]4N(C)C3)(C(C)C)C(=O)N12 [BRM, 2-Bromo-α-ergocryptine methanesulfonate salt]				Percent of mice with ([4]; Table 14 (complete protection, ONL ≥50 μm)): 16.7% of mice; Percent of mice with ([4]; Table 14 (no protection, ONL ≤20 μm)): 66.7% of mice; light-exposed mice with complete retinal protection ([4]; lower doses BRM 0.1, MTP 1, TAM 0.05 mg/kg bw, alone or all three combined): 17%; NES, CHEMOKINE SIGNALING gene set [5, 8]: 1.67; NES, CYTOKINE- RECEPTOR INTERACTIO gene set [5, 8]: 2.31; NES, P53 gene set [5, 8]: 2.06; NES, TOLL-LIKE SIGNALING gene set [5, 8]: 2.20; NES, APOPTOSIS gene set ([5]; GSEA, vehicle-treated light-exposed retinas against drug-treated, P in brackets not reported here): 1.75; number of light-up-regulated gene sets significantly down-regulated (GSEA) ([5]; of 44 gene sets up-regulated by light, mono doses BRM 1, MTP 10, TAM 2.5, DOX 10 mg/kg bw): 29 gene sets
c1ccc([I+]c2ccccc2)cc1 [DPI, diphenyliodonium]	nearly intact retinal morphology	well-preserved retinal morphology		retinal function by ERG (a-wave and b-wave amplitudes) [2]: protective effect
Cl.N=C(N)NC(=O)Cc1c(Cl)cccc1Cl [Guanfacine]	substantially preserved photoreceptor morphology	significantly prevented	markedly less autofluorescence spots	
c1ccc2c(c1)OCC(C1=NCCN1)O2 (centres unmarked) [IDA, idazoxan]				effect on the protective action of GUB ([4]; IDA 2.5 and 5 mg/kg BW first, then GUB 2 mg/kg BW, FIG. 25D): totally abolished the protective action
CC(C)n1cc2c3c(cccc31)[C@H]1C[C@@H](C(=O)N[C@H]3CCC[C@H]3O)CN(C)[C@@H]1C2 [LY 215840, (8β)-N-[(1S,2R)-2-Hydroxycyclopentyl]-1-isopropyl-6-methylergoline-8-carboxamide]	substantially preserved photoreceptor morphology	profound preservation of photoreceptor morphology	significantly reduced formation of autofluorescence spots	retinal function by ERG (a-wave and b-wave amplitudes) ([2]; listed as LY): substantial preservation of the scotopic ERG response; also recorded: substantial preservation of this response
CC(Oc1c(Cl)cccc1Cl)C1=NCCN1.Cl (centres unmarked) [Lofexidine]		significantly prevented	markedly less autofluorescence spots	retinal function by ERG (a-wave and b-wave amplitudes) ([2]; listed as LOF): substantial preservation of the scotopic ERG response; also recorded: substantial preservation of this response
COc1cc2nc(N3CCN(C(=O)c4ccco4)CC3)nc(N)c2cc1OC.Cl [Prazosin]	substantially preserved photoreceptor morphology	substantial protection on photoreceptor morphology	significantly protected retinas from developing light-induced damage	
COc1cc(N)c(Cl)cc1C(=O)OCCCN1CCCCC1.Cl [RS 23579-190]	substantially preserved photoreceptor morphology	profound preservation of photoreceptor morphology	significantly reduced formation of autofluorescence spots	retinal function by ERG (a-wave and b-wave amplitudes) ([2]; listed as RS): substantial preservation of the scotopic ERG response; also recorded: substantial preservation of this response
CC1=C(/C=C/C(C)=C/C=C/C(C)=C/CN)C(C)(C)CCC1 [Ret-NH2, all-trans-retinylamine]				ROS production in the ONL / photoreceptors (DHE signal) [1]: significantly decreased ROS production
CNc1cc(NS(=O)(=O)c2ccc(N)cc2)nc(NC)n1 [Ro 04-6790, 4-Amino-N-[2,6-bis(methylamino)-4-pyrimidinyl]benzenesulfonamidev]	substantially preserved photoreceptor morphology	profound preservation of photoreceptor morphology	significantly reduced formation of autofluorescence spots	retinal function by ERG (a-wave and b-wave amplitudes) ([2]; listed as RO): substantial preservation of the scotopic ERG response; also recorded: substantial preservation of this response
CC1CCN(CC[C@H]2CCCN2S(=O)(=O)c2cccc(O)c2)CC1.Cl [SB 269970, 3-({(2R)-2-[2-(4-Methyl-1-piperidinyl)ethyl]-1-pyrrolidinyl}sulfonyl)phenol hydrochloride (1:1)]		profound preservation of photoreceptor morphology	significantly reduced formation of autofluorescence spots	
CN1CCC(c2cn(C)c3ccc(OS(=O)(=O)c4c(F)cccc4F)cc23)CC1 [SGS 518 oxalate]	substantially preserved photoreceptor morphology	profound preservation of photoreceptor morphology	significantly reduced formation of autofluorescence spots	
COc1ccc2c(c1)CC[C@@H]1[C@@H]2CC[C@]2(C)[C@@H](NCCCCCCN3C(=O)C=CC3=O)CC[C@@H]12 [U-73122, 1-(6-((17β-3-methoxyestra-1,3,5(10)-trien-17-yl)amino)hexyl)-1H-pyrrole-2,5-dione]	markedly less light-induced photoreceptor damage			retinal function by ERG (a-wave and b-wave amplitudes) [2]: protective effect
COC(=O)[C@@H]1[C@H]2C[C@H]3c4[nH]c5ccccc5c4CCN3C[C@@H]2CC[C@@H]1O.Cl [Yohimbine]				Effect (effectiveness at preventing light-induced photoreceptor degeneration as measured by OCT imaging) [4]: toxic
CC1=C(/C=C/C(C)=C/C=C/C(C)=C/C=O)C(C)(C)CCC1 [atRAL, all-trans-retinal]				intracellular ROS production [7]: significantly elevated intracellular ROS production
O=C(c1ccc(F)cc1)C1CCN(CCn2c(=O)[nH]c3ccccc3c2=O)CC1 [ketanserin]	substantial protective effect			retinal function by ERG (a-wave and b-wave amplitudes) [2]: protective effect
Cc1nc2sccn2c(=O)c1CCN1CCC(=C(c2ccc(F)cc2)c2ccc(F)cc2)CC1 [ritanserin, Ritanserin]		substantially protected photoreceptors from light-induced degeneration		retinal function by ERG (a-wave and b-wave amplitudes) [2]: protective effect
Eltoprazine				Effect (effectiveness at preventing light-induced photoreceptor degeneration as measured by OCT imaging) [4]: 20%
